Bridge positions count the residues as written; N and C are the ends. Square brackets hold non-standard residues; d marks the D form. Peptide text beside a SMILES is read from it. dPen = CC(C)(S)[C@@H](N)C(=O)O; Pen = CC(C)(S)[C@H](N)C(=O)O
biological target: T1, Urotensin-2 receptor (Homo sapiens, UniProt Q9UKP6); assay: Ability to displace radioligand [125I]Tyr-hU-II from human recombinant Urotensin 2 receptor in CHO-K1 cells; type: cell-based; settings: not given
T1 sequence (Q9UKP6 whole entry): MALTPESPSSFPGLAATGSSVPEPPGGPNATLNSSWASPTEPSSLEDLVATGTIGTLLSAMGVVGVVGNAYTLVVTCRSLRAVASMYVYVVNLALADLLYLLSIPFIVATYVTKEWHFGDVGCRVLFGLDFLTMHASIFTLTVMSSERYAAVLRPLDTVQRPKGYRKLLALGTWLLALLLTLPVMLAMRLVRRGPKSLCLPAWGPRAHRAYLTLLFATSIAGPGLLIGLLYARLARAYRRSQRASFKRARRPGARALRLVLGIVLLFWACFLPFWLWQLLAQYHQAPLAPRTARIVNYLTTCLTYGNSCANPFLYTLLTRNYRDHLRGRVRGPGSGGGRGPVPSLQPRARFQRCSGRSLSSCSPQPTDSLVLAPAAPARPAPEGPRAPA

SMILES | Log Ki
CC(C)[C@H](NC(=O)[C@H]1NC(=O)[C@H](Cc2ccc(O)cc2)NC(=O)[C@H](CCCCN)NC(=O)[C@H](Cc2c[nH]c3ccccc23)NC(=O)[C@H](Cc2ccccc2)NC(=O)[C@@H](NC(=O)[C@@H](N)CC(=O)O)CSSC1(C)C)C(=O)O | -7.9
CC(C)[C@H](NC(=O)[C@H]1NC(=O)[C@H](Cc2ccc(O)cc2)NC(=O)[C@H](CCCCN)NC(=O)[C@H](Cc2c[nH]c3ccccc23)NC(=O)[C@H](Cc2ccccc2)NC(=O)[C@@H](NC(=O)[C@@H](N)CC(=O)O)C(C)(C)SSC1(C)C)C(=O)O (H-D[Pen]FWKY[Pen]V-OH; disulfide 2-7) | -8.9

biological target: T2, Urotensin-2 receptor (Homo sapiens) (UniProt Q9UKP6); settings: CHO-K1
T2 sequence (whole entry): T1 sequence (Q9UKP6 whole entry)

SMILES | pD2
CC(C)[C@H](NC(=O)[C@@H]1NC(=O)[C@H](Cc2ccc(O)cc2)NC(=O)[C@H](CCCCN)NC(=O)[C@H](Cc2c[nH]c3ccccc23)NC(=O)[C@H](Cc2ccccc2)NC(=O)[C@H](NC(=O)[C@@H](N)CC(=O)O)CSSC1(C)C)C(=O)O | 6.7
CC(C)[C@H](NC(=O)[C@@H]1CSSC[C@@H](NC(=O)[C@H](CC(=O)O)NC(=O)[C@H]2CCCN2C(=O)[C@@H](NC(=O)[C@@H](N)CCC(=O)O)[C@@H](C)O)C(=O)N[C@H](Cc2ccccc2)C(=O)N[C@@H](Cc2c[nH]c3ccccc23)C(=O)N[C@H](CCCCN)C(=O)N[C@@H](Cc2ccc(O)cc2)C(=O)N1)C(=O)O | 8.3
CC(C)[C@H](NC(=O)[C@@H]1CSSC[C@@H](NC(=O)[C@@H](N)CC(=O)O)C(=O)N[C@@H](Cc2ccccc2)C(=O)N[C@@H](Cc2c[nH]c3ccccc23)C(=O)N[C@@H](CCCCN)C(=O)N[C@@H](Cc2ccc(O)cc2)C(=O)N1)C(=O)O (H-D[dC]FWKYCV-OH; disulfide 2-7) | 8.6
CC(C)[C@H](NC(=O)[C@@H]1NC(=O)[C@H](Cc2ccc(O)cc2)NC(=O)[C@H](CCCCN)NC(=O)[C@H](Cc2c[nH]c3ccccc23)NC(=O)[C@H](Cc2ccccc2)NC(=O)[C@H](NC(=O)[C@@H](N)CC(=O)O)C(C)(C)SSC1(C)C)C(=O)O (H-D[dPen]FWKY[dPen]V-OH; disulfide 2-7) | 8.2
CC(C)[C@H](NC(=O)[C@@H]1CSSC(C)(C)[C@@H](NC(=O)[C@@H](N)CC(=O)O)C(=O)N[C@@H](Cc2ccccc2)C(=O)N[C@@H](Cc2c[nH]c3ccccc23)C(=O)N[C@@H](CCCCN)C(=O)N[C@@H](Cc2ccc(O)cc2)C(=O)N1)C(=O)O (H-D[dPen]FWKYCV-OH; disulfide 2-7) | 9.6

Reference: ChEMBL document CHEMBL1135818, “A new, potent urotensin II receptor peptide agonist containing a Pen residue at the disulfide bridge” (J Med Chem, 2002)
